Earlier results in patent US10052339B2, “Methods and compositions for treating symptoms of diseases related to imbalance of essential fatty acids” (BODYBIO INC, priority 2014, dated 2018).

Legend:
CB1 cannabinoid receptor = CB1 cannabinoid receptor (Homo sapiens, UniProt P21554)
CB2 receptor = CB2 receptor (Homo sapiens, UniProt P34972)
CB2 receptor, sequence (P34972 whole entry): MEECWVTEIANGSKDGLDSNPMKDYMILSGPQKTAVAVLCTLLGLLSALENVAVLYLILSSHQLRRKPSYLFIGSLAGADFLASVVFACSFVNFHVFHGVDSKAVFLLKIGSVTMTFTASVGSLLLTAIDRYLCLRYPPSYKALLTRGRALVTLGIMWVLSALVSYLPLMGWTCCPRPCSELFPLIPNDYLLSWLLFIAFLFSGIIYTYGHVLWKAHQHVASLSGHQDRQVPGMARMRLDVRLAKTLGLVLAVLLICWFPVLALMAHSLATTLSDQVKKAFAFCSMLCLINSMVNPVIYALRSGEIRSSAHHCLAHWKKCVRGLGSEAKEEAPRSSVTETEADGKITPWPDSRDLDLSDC

CB1 cannabinoid receptor, sequence (P21554 whole entry): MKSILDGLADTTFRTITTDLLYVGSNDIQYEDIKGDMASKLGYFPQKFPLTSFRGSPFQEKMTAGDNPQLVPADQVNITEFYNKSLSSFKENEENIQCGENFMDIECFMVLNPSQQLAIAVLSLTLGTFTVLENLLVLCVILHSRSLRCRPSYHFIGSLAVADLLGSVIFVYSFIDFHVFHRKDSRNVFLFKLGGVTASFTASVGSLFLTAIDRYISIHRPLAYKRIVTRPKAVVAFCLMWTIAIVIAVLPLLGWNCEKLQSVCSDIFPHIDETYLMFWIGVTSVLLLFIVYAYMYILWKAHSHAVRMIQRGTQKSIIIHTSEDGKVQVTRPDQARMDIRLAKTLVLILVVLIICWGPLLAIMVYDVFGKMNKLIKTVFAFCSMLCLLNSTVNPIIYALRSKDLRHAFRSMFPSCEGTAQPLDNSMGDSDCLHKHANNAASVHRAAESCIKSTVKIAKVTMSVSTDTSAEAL

In the case of `CCCCC/C=C\C/C=C\C/C=C\C/C=C\CCCCOC(CO)CO` [Noladin ether, 2-arachidonyl glyceryl ether], the “effects caused in mice” value (mice) is listed as “sedation, hypothermia, intestinal immobility, and mild antinociception”, the Ki (CB1 cannabinoid receptor) is listed as 21.2 nM and the “binding to the CB2 receptor” value (CB2 receptor) is listed as “only weakly”.
